Experimental data as given in ChEMBL document CHEMBL4190297, “Cafestol, a Bioactive Substance in Coffee, Has Antidiabetic Properties in KKAy Mice” (J Nat Prod, 2017).
The source made the active and inactive calls. The rule behind the calls is not given here.

How the values were obtained:
Mus musculus [1] = species on record: Mus musculus; assay: Antidiabetic activity in KK-Ay diabetic mouse model assessed as non-fasting blood glucose level at 1.1 mg added daily to normal chow pellets for 10 weeks (reference value: 26.2 +/- 1.2 mmol/L); type: functional
Mus musculus [2] = species on record: Mus musculus; assay: Antidiabetic activity in KK-Ay diabetic mouse model assessed as increase in insulin levels in plasma at 1.1 mg added daily to normal chow pellets for 10 weeks by radioimmunoassay; type: functional, organism-based
Mus musculus [3] = species on record: Mus musculus; assay: Antidiabetic activity in KK-Ay diabetic mouse model assessed as decrease in plasma triglycerides level at 0.14 to 1.1 mg added daily to normal chow pellets for 10 weeks by colorimetric analysis; type: functional, organism-based
Mus musculus [4] = species on record: Mus musculus; assay: Induction of 3.3 mM glucose-stimulated insulin secretion in pancreatic islets isolated from KK-Ay diabetic mouse model at 1.1 mg added daily to normal chow pellets for 10 weeks followed by glucose stimulation of isolated pancreatic islets for 1 hr by radioimmunoassay relative to control; type: functional
Mus musculus [5] = species on record: Mus musculus; assay: Induction of 3.3 mM glucose-stimulated insulin secretion in pancreatic islets isolated from KK-Ay diabetic mouse model at 0.4 mg added daily to normal chow pellets for 10 weeks followed by glucose stimulation of isolated pancreatic islets for 1 hr by radioimmunoassay relative to control; type: functional
Mus musculus [6] = species on record: Mus musculus; assay: Antidiabetic activity in KK-Ay diabetic mouse model assessed as decrease in GCRG mRNA expression levels in muscle tissue at 0.4 mg added daily to normal chow pellets for 10 weeks by qRT-PCR analysis; type: functional, organism-based
Mus musculus [7] = species on record: Mus musculus; assay: Effect on Mtor mRNA expression levels in adipose tissue of KK-Ay diabetic mouse model at 0.4 to 1.1 mg added daily to normal chow pellets for 10 weeks by qRT-PCR analysis; type: functional, organism-based
Mus musculus [8] = species on record: Mus musculus; assay: Effect on Lipc mRNA expression levels in adipose tissue of KK-Ay diabetic mouse model at 0.4 to 1.1 mg added daily to normal chow pellets for 10 weeks by qRT-PCR analysis; type: functional, organism-based
Mus musculus [9] = species on record: Mus musculus; assay: Effect on InsR mRNA expression levels in adipose tissue of KK-Ay diabetic mouse model at 0.4 to 1.1 mg added daily to normal chow pellets for 10 weeks by qRT-PCR analysis; type: functional, organism-based
Mus musculus [10] = species on record: Mus musculus; assay: Effect on GYS2 mRNA expression levels in adipose tissue of KK-Ay diabetic mouse model at 0.4 to 1.1 mg added daily to normal chow pellets for 10 weeks by qRT-PCR analysis; type: functional, organism-based
Mus musculus [11] = species on record: Mus musculus; assay: Effect on GLUT2 mRNA expression levels in adipose tissue of KK-Ay diabetic mouse model at 0.4 to 1.1 mg added daily to normal chow pellets for 10 weeks by qRT-PCR analysis; type: functional, organism-based
Mus musculus [12] = species on record: Mus musculus; assay: Effect on FAS mRNA expression levels in adipose tissue of KK-Ay diabetic mouse model at 0.4 to 1.1 mg added daily to normal chow pellets for 10 weeks by qRT-PCR analysis; type: functional, organism-based
Mus musculus [13] = species on record: Mus musculus; assay: Effect on CD36 mRNA expression levels in adipose tissue of KK-Ay diabetic mouse model at 0.4 to 1.1 mg added daily to normal chow pellets for 10 weeks by qRT-PCR analysis; type: functional, organism-based
Mus musculus [14] = species on record: Mus musculus; assay: Effect on Akt2 mRNA expression levels in adipose tissue of KK-Ay diabetic mouse model at 0.4 to 1.1 mg added daily to normal chow pellets for 10 weeks by qRT-PCR analysis; type: functional, organism-based
Mus musculus [15] = species on record: Mus musculus; assay: Effect on Abca1 mRNA expression levels in adipose tissue of KK-Ay diabetic mouse model at 0.4 to 1.1 mg added daily to normal chow pellets for 10 weeks by qRT-PCR analysis; type: functional, organism-based
Mus musculus [16] = species on record: Mus musculus; assay: Effect on 18s rRNA expression levels in adipose tissue of KK-Ay diabetic mouse model at 0.4 to 1.1 mg added daily to normal chow pellets for 10 weeks by qRT-PCR analysis; type: functional, organism-based
Mus musculus [17] = species on record: Mus musculus; assay: Effect on Sirt1 mRNA expression levels in muscle of KK-Ay diabetic mouse model at 0.4 to 1.1 mg added daily to normal chow pellets for 10 weeks by qRT-PCR analysis; type: functional, organism-based
Mus musculus [18] = species on record: Mus musculus; assay: Effect on PPARalpha mRNA expression levels in muscle of KK-Ay diabetic mouse model at 0.4 to 1.1 mg added daily to normal chow pellets for 10 weeks by qRT-PCR analysis; type: functional, organism-based
Mus musculus [19] = species on record: Mus musculus; assay: Effect on PPARGC1alpha mRNA expression levels in muscle of KK-Ay diabetic mouse model at 0.4 to 1.1 mg added daily to normal chow pellets for 10 weeks by qRT-PCR analysis; type: functional, organism-based
Mus musculus [20] = species on record: Mus musculus; assay: Effect on Mtor mRNA expression levels in muscle of KK-Ay diabetic mouse model at 0.4 to 1.1 mg added daily to normal chow pellets for 10 weeks by qRT-PCR analysis; type: functional, organism-based
Mus musculus [21] = species on record: Mus musculus; assay: Effect on LXRalpha mRNA expression levels in muscle of KK-Ay diabetic mouse model at 0.4 to 1.1 mg added daily to normal chow pellets for 10 weeks by qRT-PCR analysis; type: functional, organism-based
Mus musculus [22] = species on record: Mus musculus; assay: Effect on JNK1 mRNA expression levels in muscle of KK-Ay diabetic mouse model at 0.4 to 1.1 mg added daily to normal chow pellets for 10 weeks by qRT-PCR analysis; type: functional, organism-based
Mus musculus [23] = species on record: Mus musculus; assay: Effect on InsR mRNA expression levels in muscle of KK-Ay diabetic mouse model at 0.4 to 1.1 mg added daily to normal chow pellets for 10 weeks by qRT-PCR analysis; type: functional, organism-based
Mus musculus [24] = species on record: Mus musculus; assay: Effect on AMPKalpha2 mRNA expression levels in muscle of KK-Ay diabetic mouse model at 0.4 to 1.1 mg added daily to normal chow pellets for 10 weeks by qRT-PCR analysis; type: functional, organism-based
Mus musculus [25] = species on record: Mus musculus; assay: Effect on SOD2 mRNA expression levels in liver of KK-Ay diabetic mouse model at 0.4 to 1.1 mg added daily to normal chow pellets for 10 weeks by qRT-PCR analysis; type: functional, organism-based
Mus musculus [26] = species on record: Mus musculus; assay: Effect on LXRalpha mRNA expression levels in liver of KK-Ay diabetic mouse model at 0.4 to 1.1 mg added daily to normal chow pellets for 10 weeks by qRT-PCR analysis; type: functional, organism-based
Mus musculus [27] = species on record: Mus musculus; assay: Effect on Gcgr mRNA expression levels in liver of KK-Ay diabetic mouse model at 0.4 to 1.1 mg added daily to normal chow pellets for 10 weeks by qRT-PCR analysis; type: functional, organism-based
Mus musculus [28] = species on record: Mus musculus; assay: Effect on FAS mRNA expression levels in liver of KK-Ay diabetic mouse model at 0.4 to 1.1 mg added daily to normal chow pellets for 10 weeks by qRT-PCR analysis; type: functional, organism-based
Mus musculus [29] = species on record: Mus musculus; assay: Effect on Akt2 mRNA expression levels in liver of KK-Ay diabetic mouse model at 0.4 to 1.1 mg added daily to normal chow pellets for 10 weeks by qRT-PCR analysis; type: functional, organism-based
Mus musculus [30] = species on record: Mus musculus; assay: Effect on triglyceride concentration in liver of KK-Ay diabetic mouse model at 0.4 to 1.1 mg added daily to normal chow pellets for 10 weeks; type: functional, organism-based
Mus musculus [31] = species on record: Mus musculus; assay: Effect on PKCdelta mRNA expression levels in adipose tissue of KK-Ay diabetic mouse model at 0.4 to 1.1 mg added daily to normal chow pellets for 10 weeks by qRT-PCR analysis; type: functional, organism-based
Mus musculus [32] = species on record: Mus musculus; assay: Toxicity in KK-Ay diabetic mouse model assessed as effect on body weight at 0.4 mg added daily to normal chow pellets for 4 weeks; type: organism-based; conditions: in vivo, po, 672 h
Mus musculus [33] = species on record: Mus musculus; assay: Effect on PPARalpha mRNA expression levels in adipose tissue of KK-Ay diabetic mouse model at 0.4 to 1.1 mg added daily to normal chow pellets for 10 weeks by qRT-PCR analysis; type: functional, organism-based

For `C[C@@]12CCc3occc3[C@H]1CC[C@@]13C[C@H](CC[C@H]12)[C@@](O)(CO)C3`, the Activity (Mus musculus [1]) was 19.7 mmol/L, the Activity (Mus musculus [2]) was “inactive” and the Activity (Mus musculus [3]) was “inactive”. For the same compound, the Activity (Mus musculus [4]) was 44%, the Activity (Mus musculus [5]) was 67% and the Activity (Mus musculus [6]) was “Active”. For the same compound, the Activity (Mus musculus [7]) was “inactive”, the Activity (Mus musculus [8]) was “inactive” and the Activity (Mus musculus [9]) was “inactive”. For the same compound, the Activity (Mus musculus [10]) was “inactive”, the Activity (Mus musculus [11]) was “inactive” and the Activity (Mus musculus [12]) was “inactive”. The Activity (Mus musculus [13]) was “inactive”, the Activity (Mus musculus [14]) was “inactive” and the Activity (Mus musculus [15]) was “inactive”. For the same compound, the Activity (Mus musculus [16]) was “inactive”, the Activity (Mus musculus [17]) was “inactive” and the Activity (Mus musculus [18]) was “inactive”. For the same compound, the Activity (Mus musculus [19]) was “inactive”, the Activity (Mus musculus [20]) was “inactive” and the Activity (Mus musculus [21]) was “inactive”. The Activity (Mus musculus [22]) was “inactive”, the Activity (Mus musculus [23]) was “inactive” and the Activity (Mus musculus [24]) was “inactive”. The Activity (Mus musculus [25]) was “inactive”, the Activity (Mus musculus [26]) was “inactive” and the Activity (Mus musculus [27]) was “inactive”. For the same compound, the Activity (Mus musculus [28]) was “inactive”, the Activity (Mus musculus [29]) was “inactive” and the Activity (Mus musculus [30]) was “inactive”. The Activity (Mus musculus [31]) was “inactive”, the Activity (Mus musculus [32]) was “Non-Toxic” and the Activity (Mus musculus [33]) was “inactive”.
